In article PMC12030253, “New Temporin A Analogues Modified in Positions 1 and 10—Synthesis and Biological Studies” (Pharmaceutics, 2025):
In brackets after ≈: the same amount, converted by molar mass. Several values for one entry are separate records, joined by “and”; a condition that tells them apart may be missing. Identical values can stand only once. Like-named read-outs stand apart in the source and are kept apart here. Square brackets hold non-standard residues; d marks the D form. Ends that are not written are not given here. Peptide text beside a SMILES is read from it. Phe(4-F) = N[C@@H](Cc1ccc(F)cc1)C(=O)O

Legend:
[1] = system: Bacillus subtilis NBIMCC 3562; type: cell-based; conditions: 30 µg/disk, positive control on the plate of the peptide
Procedure: (§1) In order to evaluate the antimicrobial activity, the parent peptide Temporin A and newly synthesized analogues were tested against model strains Escherichia coli NBIMCC 8785, Pseudomonas aeruginosa NBIMCC 3700, Bacillus subtilis NBIMCC 3562, Arthrobacter oxydans NBIMCC 9333, and Candida albicans NBIMCC 74. The strains were purchased from the National Bank for Industrial Microorganisms and Cell Cultures (NBIMCC, Sofia, Bulgaria). They were cultured as follows: • E. coli 8785 in Luria–Bertani (LB, HiMedia, Mumbai, India) agar medium; • B. subtilis 3562 in nutrient broth (NB, HiMedia, Mumbai, India) agar medium; • P. aeruginosa 3700 and A. oxydans 9333 in Meat Peptone agar (MPA) medium; • C. albicans 74 in Yeast Mold (YM) agar medium.
(§2) The cultivation was performed in an incubator shaker ES-20/60 (Biosan, Riga, Latvia), set for B. subtilis 3562, A. oxydans 9333, and C. albicans 74 at 30 °C, and for E. coli 8785 and P. aeruginosa 3700 at 37 °C, for 24 h with 120 rpm. The microbial cultures were then brought to a 0.5 McFarland turbidity using a Grant-bio DEN-1B densitometer (Grant Instruments, Nether Alderley, United Kingdom).
(§3) The disk diffusion method was employed as an additional technique in order to determine the percentage of inhibition of the synthesized peptides compared to a chosen antibiotic, used as a positive control. The antibiotics used were gentamicin (10 µg/disk), chloramphenicol (30 µg/disk), and itraconazole (10 µg/disk). In total, 100 μL from each microbial culture was spread on LB/NB/MPA/YM agar plates. The plates were then incubated at the appropriate temperature for a period of 30 min intended for the penetration of the culture into the agar. […] The antimicrobial activity was assessed by measuring the diameter of the inhibition zones in mm. […] In addition, the percentage of inhibition was calculated as the correlation between the inhibition zone of the peptide (measured in mm) over the inhibition zone of the antibiotic (measured in mm) multiplied by 100.

[2] = system: Bacillus subtilis NBIMCC 3562; design: method as in PMID 38931840; conditions: 30 µg/disk, positive control with DTA; cited from earlier work
in vitro = type: cell-based, Mouse; conditions: mouse
Procedure: (§4) Mouse embryonic fibroblasts (BALB 3T3 clone A31), human breast epithelial cells (MCF-12F), luminal A breast cancer (MCF-7), and basal B-type breast cancer (MDA-MB-231) were used in in vitro experiments. Cell cultures were purchased from the American Type Cultures Collection (ATCC, Manassas, VA, USA). Cells were cultured in a growth medium (DMEM-4.5 g/L glucose), 10% FBS, and antibiotics (Sigma-Aldrich, Schnelldorf, Germany). Cells were incubated at 5% CO2, 37 °C, and 95% humidity. Plastic flasks (75 cm^2) were used for the cell culture (Biologix, Lenexa, KS, USA).
(§5) The safety testing was performed according to the OECD Guidelines for the Testing of Chemicals, Section 4, Test No. 432. Mouse embryonic fibroblasts (BALB 3T3, clone A31) were used to perform the in vitro cytotoxicity and phototoxicity tests. Cells were plated at 1 × 10^4 cells per well in 96-well cell culture plates. The cells were incubated in a thermostat for 24 h before the test peptide analogues were added. […] Working concentrations (4–1000 µM) of peptides were obtained by diluting the stock solution with a culture medium. The phototoxicity test was performed using 96-well microplates. The microplates were irradiated with a dose of 2.4 J/cm^2 using a solar light simulator Helios-iO (SERIC Ltd., Tokyo, Japan). After treatment with a neutral red (NR) medium (NR dissolved in culture medium, 34 µg/mL), washing, and application of the NR Desorb solution (freshly prepared 49 parts water + 50 parts ethanol + 1 part acetic acid), the absorption was measured on a microplate reader at a wavelength of 540 nm. Cytotoxicity was expressed as CC50 values.

MCF-12F cells = type: cell-based, human; conditions: for IC50: 72 h
Procedure: as §4
(§6) The antiproliferative activity of the peptide analogues was determined by an MTT assay. Normal epithelial cells (MCF-12F) and tumor cell lines (MCF-7 and MDA-MB-231) were used in the in vitro experiments. Cells were plated at 1 × 10^3 cells/100 µL/well in 96-well microplates. After 24 h of incubation in a thermostat under standard conditions, the cells were treated with test compounds for 72 h. The optical density of the formazan was measured at λ = 540 nm using a microplate reader. Antiproliferative activities were expressed as IC50 values. The statistical analysis of the results was performed using one-way ANOVA, followed by Bonferroni’s post hoc test.

MCF-7 cells = type: cell-based, human; conditions: 72 h
Procedure: as §4
as §6, with “After 24 h of incubation in a thermostat under standard conditions, the cells were treated with test compounds for 72 h.” left out

MDA-MB-231 cells = type: cell-based, human; conditions: 72 h
Procedure: as §4
as §6, with “After 24 h of incubation in a thermostat under standard conditions, the cells were treated with test compounds for 72 h.” left out

[3] = system: Arthrobacter oxydans NBIMCC 9333; type: cell-based; conditions: 24 h
Procedure: as §1, §2
(§7) The broth dilution method was employed to estimate the MIC of the peptides. In total, 10 mg/mL peptide stock solutions in 10% EtOH/H2O were prepared. Microbial culture in the corresponding media and peptide solutions in a concentration range from 0 to 320 µg/mL (concentration levels: 0, 10, 20, 40, 80, 160, and 320 µg/mL) were placed in 96-well U-shaped-bottom polystyrene plates (Deltalab S.L., Barcelona, Spain). In addition, 10% EtOH/H2O control, diluted in the nutrient medium, was added in separate wells. Furthermore, the microplates were incubated under aerobic conditions at the desired temperature for 24 h. […] The absorbance was measured at 630 nm (microplate reader PKL PPC 142, Italy). In total, 10 μL solution with concentrations greater than or equal to the MIC value was placed on the corresponding solid nutrient medium in order to evaluate a potential minimum bactericidal concentration (MBC) and minimal fungicidal concentration (MFC). Furthermore, the Petri dishes were incubated for 24 h at either 30 or 37 °C. Every experiment was carried out three times.

[4] = system: Bacillus subtilis NBIMCC 3562; type: cell-based
Procedure: as §1, §2, §7

[5] = system: Pseudomonas aeruginosa NBIMCC 3700; type: cell-based
Procedure: as §1, §2, §7

[6] = system: Escherichia coli NBIMCC 8785; experiment: Broth dilution MIC, E. coli; type: cell-based; design: key: NI—no inhibition observed; conditions: 0-320 µg/mL, 24 h
Procedure: as §1, §2
(§8) The broth dilution method was employed to estimate the MIC of the peptides. In total, 10 mg/mL peptide stock solutions in 10% EtOH/H2O were prepared. […] The absorbance was measured at 630 nm (microplate reader PKL PPC 142, Italy). […]

[7] = system: Candida albicans NBIMCC 74; experiment: Broth dilution MIC, C. albicans; type: cell-based; design: key: NI—no inhibition observed; conditions: 0-320 µg/mL, 24 h
Procedure: as §1, §2, §8

BALB 3T3 cells = experiment: in vitro; type: cell-based, Mouse
Procedure: as §4, §5

[8] = system: Escherichia coli NBIMCC 8785; type: cell-based; conditions: 10 µg/disk, positive control on the plate of the peptide
Procedure: as §1, §2, §3

[9] = system: Pseudomonas aeruginosa NBIMCC 3700; type: cell-based; conditions: 10 µg/disk, positive control on the plate of the peptide
Procedure: as §1, §2, §3

[10] = system: Arthrobacter oxydans NBIMCC 9333; design: method as in PMID 38931840; conditions: 10 µg/disk, positive control with DTA; cited from earlier work
[11] = system: Escherichia coli NBIMCC 8785; design: method as in PMID 38931840; conditions: 10 µg/disk, positive control with DTA; cited from earlier work
[12] = system: Pseudomonas aeruginosa NBIMCC 3700; design: method as in PMID 38931840; conditions: 10 µg/disk, positive control with DTA; cited from earlier work
[13] = broth dilution, 0-320 µg/mL, 24 h

Compound | CC50 (in vitro; Mean CC50 ± SD +Irr) | CC50 (in vitro; Mean CC50 ± SD −Irr) | IC50 (MCF-12F cells) | IC50 (MCF-7 cells) | IC50 (MDA-MB-231 cells) | MIC E. coli 8785 [6] | MIC C. albicans 74 [7] | PIF (Photo-Irritation Factor) (BALB 3T3 cells) | MIC A. oxydans 9333 [3] | MIC B. subtilis 3562 ([4]; NBIMCC 3562, 24 h) | MIC P. aeruginosa 3700 ([5]; NBIMCC 3700, 24 h) | other results
O=C(N[C@H](CO)[C@H](O)c1ccc([N+](=O)[O-])cc1)C(Cl)Cl [Chloramphenicol, chloramphenicol] | – | – | – | – | – | – | – | – | – | – | – | Inhibition zone B. subtilis 3562, antibiotic control [1]: 24 mm and 27 mm and 28 mm; Inhibition zone B. subtilis 3562, antibiotic control [2]: 26 mm
FLPLIGRVLYGIL-NH2 [DTTyr10, FLPLIGRVL-Y-GILNH2] | > 1000 µM | > 1000 µM | 251 ± 11.8 µM | 64.5 ± 3.93 µM | 328.5 ± 2.62 µM | NI ** | NI ** | – | – | – | – | Antiproliferative activity in MCF-12F at a single concentration (MCF-12F cells; at 64.51 µM, non-tumorigenic cells): no antiproliferative activity was observed; MIC A. oxydans 9333 ([3]; broth dilution, 0-320 µg/mL): 320 µg/mL; MIC B. subtilis 3562 [4, 13]: 320 µg/mL; MIC P. aeruginosa 3700 [5, 13]: 320 µg/mL
YLPLIGRVLSGIL-NH2 [DTTyr1, Y-LPLIGRVLSGILNH2] | 671 ± 12.2 µM | 669 ± 13.4 µM | 318 ± 9.79 µM | 216 ± 10.3 µM | 334 ± 3.72 µM | NI ** | NI ** | 1.0 | 320 µg/mL | 160 µg/mL | 320 µg/mL | –
FLPLIGRVLTGIL-NH2 [DTThr, FLPLIGRVL-T-GILNH2] | 188 ± 3.55 µM | 183 ± 2.91 µM | 165 ± 2.21 µM | 98.6 ± 1.19 µM | 136 ± 3.61 µM | – | – | 1.0 | 320 µg/mL | 160 µg/mL | 320 µg/mL | –
CC[C@H](C)[C@H](NC(=O)CNC(=O)[C@H](CO)NC(=O)[C@H](CC(C)C)NC(=O)[C@@H](NC(=O)[C@H](CCCNC(=N)N)NC(=O)CNC(=O)[C@@H](NC(=O)[C@H](CC(C)C)NC(=O)[C@@H]1CCCN1C(=O)[C@H](CC(C)C)NC(=O)[C@@H](N)Cc1ccc(F)cc1)[C@@H](C)CC)C(C)C)C(=O)N[C@@H](CC(C)C)C(N)=O [DT4F, Phe(4F)-LPLIGRVLSGILNH2] (H-[Phe(4-F)]LPLIGRVLSGIL-NH2) | 40 ± 0.78 µM | 55.4 ± 4.64 µM | 41.8 ± 1.64 µM | 20.3 ± 0.6 µM | 32 ± 1.43 µM | – | – | 1.4 | 160 µg/mL (≈ 113 µM) | 80 µg/mL (≈ 56.5 µM) | 80 µg/mL (≈ 56.5 µM) | –
CNC(C)C1CCC(N)C(OC2C(N)CC(N)C(OC3OCC(C)(O)C(NC)C3O)C2O)O1 (centres unmarked) [Gentamicin, gentamicin] | – | – | – | – | – | – | – | – | – | – | – | Inhibition zone E. coli 8785, antibiotic control [8]: 17.5 mm and 16.5 mm and 17 mm; Inhibition zone P. aeruginosa 3700, antibiotic control [9]: 17 mm and 18 mm and 16 mm; Inhibition zone A. oxydans 9333, antibiotic control [10]: 18 mm; Inhibition zone E. coli 8785, antibiotic control [11]: 18 mm; Inhibition zone P. aeruginosa 3700, antibiotic control [12]: 17 mm
